From ChEMBL document CHEMBL1201862, “PubChem BioAssay data set” (2004)
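Grown in 96-well plates, cells were treated for 48 hours with each compound at five concentrations. Insufficient inhibition: endpoint recorded as highest concentration tested. Here, GI50 denotes the concentration required for 50% inhibition of growth.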 Active and inactive are the calls of the source. Rule as the data show it: active = GI50 up to about 1.1 µM and inactive = higher.

Tests used:
Test in all cases: DTP human tumour cell line panel, 48 h
SK-OV-3 = system: SK-OV-3
OVCAR-3 = system: OVCAR-3
MCF7 = system: MCF7
TK-10 = system: TK-10
DU-145 = system: DU-145
CCRF-CEM = system: CCRF-CEM
ACHN = system: ACHN
SNB-19 = system: SNB-19
SN12C = system: SN12C
HL-60 = system: HL-60
K562 = system: K562
IGROV-1 = system: IGROV-1
DLD-1 = system: DLD-1
A549 = system: A549
OVCAR-5 = system: OVCAR-5
SF-539 = system: SF-539
NCI-H460 = system: NCI-H460
DMS-273 = system: DMS-273
HCT-15 = system: HCT-15
KM12 = system: KM12
MOLT-4 = system: MOLT-4
CAKI-1 = system: CAKI-1
HOP-62 = system: HOP-62
RXF 393 = system: RXF 393
M19-MEL = system: M19-MEL
NCI-H522 = system: NCI-H522
NCI/ADR-RES = system: NCI/ADR-RES
HT-29 = system: HT-29
HCT-116 = system: HCT-116
SR = system: SR
SK-MEL-2 = system: SK-MEL-2
T47D = system: T47D
Malme-3M = system: Malme-3M
UO-31 = system: UO-31
SF-295 = system: SF-295
SNB-78 = system: SNB-78
SF-268 = system: SF-268
UACC-257 = system: UACC-257
RXF 631 = system: RXF 631
KM-20L2 = system: KM-20L2
SK-MEL-28 = system: SK-MEL-28
UACC-62 = system: UACC-62
COLO 205 = system: COLO 205
HOP-92 = system: HOP-92
PC-3 = system: PC-3
MDA-MB-435 = system: MDA-MB-435
A498 = system: A498
MDA-N = system: MDA-N
SNB-75 = system: SNB-75
NCI-H23 = system: NCI-H23
NCI-H226 = system: NCI-H226
786-0 = system: 786-0
M14 = system: M14
RPMI-8226 = system: RPMI-8226
HOP-18 = system: HOP-18
SK-MEL-5 = system: SK-MEL-5
HCC 2998 = system: HCC 2998
OVCAR-8 = system: OVCAR-8
LXFL 529 = system: LXFL 529
U-251 = system: U-251
EKVX = system: EKVX
Hs-578T = system: Hs-578T
OVCAR-4 = system: OVCAR-4
BT-549 = system: BT-549
SW-620 = system: SW-620
XF498 = system: XF498
DMS-114 = system: DMS-114
LOX IMVI = system: LOX IMVI

## CCCCCCCCCCCCCCCCCCN(C)CC(COC)OP(=O)([O-])OCC[N+](C)(C)C (stereo not drawn)
SK-OV-3
  GI50: 11200 nM (inactive)
OVCAR-3
  GI50: 2240 nM (inactive)
MCF7
  GI50: 3970 nM (inactive)
TK-10
  GI50: 1030 nM (active)
DU-145
  GI50: 2220 nM (inactive)
CCRF-CEM
  GI50: 1510 nM (inactive)
ACHN
  GI50: 1910 nM (inactive)
SNB-19
  GI50: 867 nM (active)
SN12C
  GI50: 3300 nM (inactive)
HL-60
  GI50: 495 nM (active)
K562
  GI50: 9420 nM (inactive)
IGROV-1
  GI50: 532 nM (active)
DLD-1
  GI50: 1470 nM (inactive)
A549
  GI50: 1780 nM (inactive)
OVCAR-5
  GI50: 1720 nM (inactive)
SF-539
  GI50: 3840 nM (inactive)
NCI-H460
  GI50: 851 nM (active)
DMS-273
  GI50: 625 nM (active)
HCT-15
  GI50: 3140 nM
KM12
  GI50: 644 nM (active)
MOLT-4
  GI50: 2830 nM (inactive)
CAKI-1
  GI50: 1330 nM (inactive)
HOP-62
  GI50: 1720 nM (inactive)
RXF 393
  GI50: 824 nM (active)
M19-MEL
  GI50: 2750 nM (inactive)
NCI-H522
  GI50: 1430 nM (inactive)
NCI/ADR-RES
  GI50: 17900 nM (inactive)
HT-29
  GI50: 1280 nM (inactive)
HCT-116
  GI50: 1660 nM (inactive)
SR
  GI50: 341 nM (active)
SK-MEL-2
  GI50: 14400 nM (inactive)
T47D
  GI50: 14000 nM (inactive)
Malme-3M
  GI50: 11700 nM (inactive)
UO-31
  GI50: 7520 nM (inactive)
SF-295
  GI50: 1070 nM (active)
SNB-78
  GI50: 3560 nM (inactive)
SF-268
  GI50: 1480 nM (inactive)
UACC-257
  GI50: 9080 nM (inactive)
RXF 631
  GI50: 5250 nM (inactive)
KM-20L2
  GI50: 2000 nM (inactive)
SK-MEL-28
  GI50: 15700 nM (inactive)
UACC-62
  GI50: 3050 nM (inactive)
COLO 205
  GI50: 1210 nM (inactive)
HOP-92
  GI50: 1170 nM (inactive)
PC-3
  GI50: 374 nM (active)
MDA-MB-435
  GI50: 5080 nM (inactive)
A498
  GI50: 3770 nM (inactive)
MDA-N
  GI50: 4200 nM (inactive)
SNB-75
  GI50: 1010 nM (active)
NCI-H23
  GI50: 3160 nM (inactive)
NCI-H226
  GI50: 4320 nM (inactive)
786-0
  GI50: 938 nM (active)
M14
  GI50: 4110 nM (inactive)
RPMI-8226
  GI50: 635 nM (active)
HOP-18
  GI50: 1850 nM (inactive)
SK-MEL-5
  GI50: 9440 nM (inactive)
HCC 2998
  GI50: 1420 nM (inactive)
OVCAR-8
  GI50: 3270 nM (inactive)
LXFL 529
  GI50: 2210 nM (inactive)
U-251
  GI50: 891 nM (active)
EKVX
  GI50: 12500 nM (inactive)
Hs-578T
  GI50: 4930 nM (inactive)
OVCAR-4
  GI50: 2540 nM (inactive)
BT-549
  GI50: 2530 nM (inactive)
SW-620
  GI50: 3150 nM (inactive)
XF498
  GI50: 4930 nM (inactive)
DMS-114
  GI50: 2840 nM (inactive)
LOX IMVI
  GI50: 5140 nM (inactive)
